Experiments:
[1] = system: STAT3; experiment: Phosphorylation after EGF stimulation of LNCaP cells, each concentration of compound; format: cell-based; conditions: EGF 1 ng/ml, compound 10^-6 M, 5x10^-6 M, 10x10^-6 M
[2] = system: MAPK; experiment: Phosphorylation of MAPK in LNCaP cells stimulated with EGF; format: cell-based; conditions: EGF 1 ng/ml, compound 10^-6 M added 30 minutes before
Protocol: (1) LNCaP cells (10^7 cells) were cultured in a serum-free culture medium (F-12+1 mg/ml BSA) for 24 hours, each concentration of EGF and Compound B (10^−6 M) were added, and phosphorylation of MAPK was investigated.

[3] = system: MAPK; experiment: Phosphorylation of MAPK in LNCaP cells stimulated with IL-6; format: cell-based; conditions: IL-6 25 ng/ml, compound 10^-6 M, 5x10^-6 M, 10x10^-6 M
Protocol: (3) LNCaP cells (10^7 cells) were cultured in a serum-free culture medium (F-12+1 mg/ml BSA) for 24 hours, IL-6: 25 ng/ml and each concentration of Compound B (10^−6 M, 5×10^−6 M, 10×10^−6 M) were added, and phosphorylation of MAPK was investigated.

[4] = system: DU-145 (androgen receptor negative cell line derived from metastasis of prostate cancer); experiment: Cell number of DU-145 prostate cancer cells 5 days after addition of EGF and compound; format: cell-based; conditions: DU-145, serum free, 10^-6 M compound plus EGF
Protocol: Prostate cancer cells, DU-145 (androgen receptor negative cell line derived from metastasis of prostate cancer) were seeded on a 6-well dish (1×10^5 cells/well), and cultured for 24 hours under serum free conditions. Then, EGF and 2-ethoxy-1-[[2′-(1H-tetrazol-5-yl)biphenyl-4-yl]methyl]benzimidazole-7-carboxylic acid (Compound B) were added, and 5 days after, the number of cells was counted with a hematocytometer [FIG. 1].

[5] = system: LNCaP (androgen receptor positive cell line derived from metastasis of prostate cancer); experiment: Cell number of LNCaP prostate cancer cells 5 days after addition of EGF and compound; format: cell-based; conditions: serum free, 10^-6 M compound plus EGF
Protocol: Prostate cancer cells, LNCaP (androgen receptor positive cell line derived from metastasis of prostate cancer) were seeded on a dish (1×10^5 cells/dish), and cultured for 24 hours under serum free conditions. Then, EGF and Compound B were added, and 5 days after, the number of cells was counted [FIG. 2].

[6] = system: microvessels in DU145 tumor; experiment: Number of microvessels in DU145 tumor of nude mouse, anti-CD31 staining; format: in vivo, nude mouse (Balb/c); conditions: 5 mg/kg/day orally, 4 weeks, magnification 400; control 72.5±9.7, P<0.02
Protocol: To a male 4 week old nude mouse (Balb/c), 5×10^6 DU145 cells were subcutaneously injected on a back. After 10 days, when tumor having a diameter of 5 mm was formed (0 week), Candesartan cilexetil (Compound C) was mixed into drinking water (each group: n=3) so that Compound C could be orally taken the an amount of 5 mg/kg/day. As a control group, a group (n=3) receiving no Compound C was bred at the same time. Initiation of the oral administration was regarded as week 0, each group was bred for 4 weeks, and thereafter, tumor was isolated, stained with an anti-CD31 antibody as described hereinafter, and the number of microvessels in tumor was examined. Under a microscope (magnification 400), four places rich in the number of microvessels were selected from a tumor solid tissue part, and the number was counted. The results are shown in [FIG. 7]. Average 72.5±9.7 vessels were recognized in one field in case of the control group, and average 37.5±3.3 vessels were recognized in one field in case of the Compound C-administered group and, thus, a significant difference was recognized between both groups (P<0.02).
Vessels in a tumor-transplanted tissue of a nude mouse were immunologically stained using an anti-mouse CD31 antibody, and the number of vessels and vascularization state were studied. Procedures were as follows: […]

[7] = system: DU145 cells; experiment: Tumor growth of subcutaneous DU145 tumor in nude mouse, compound in drinking water; format: in vivo, nude mouse (Balb/c)
Protocol: To a male 4 week-old nude mouse (Balb/c), 5×10^6 DU145 cells were subcutaneously injected on a back. After 10 days, when tumor having a diameter of 5 mm was formed (week 0), Candesartan cilexetil (Compound C) was mixed into drinking water so that Compound C could be orally taken at a dosage of 5 mg/kg day or 2.5 mg/kg day (each group: n=5). As a control group, a group (n=5) receiving no Compound C was bred at the same time. Initiation of the oral administration was regarded as week 0, each group was bred for 4 weeks, and a diameter of tumor was measured every week.

[8] = system: MAP kinase; experiment: Activated MAP kinase in LNCaP cells, Western blotting with anti-phospho-MAP kinase antibody; format: cell-based; conditions: 24 h no serum, angiotensin II 1x10^-6 M or EGF 1 ng/ml
Protocol: In order to make clear the effect of angiotensin II on MAP kinase which is one of cellular proteins controlling cell growth, prostate cancer LNCaP cells were cultured for 24 hours with no serum stimulation, and then, stimulated with angiotensin II (1×10^−6 M) or EGF (1 ng/ml) already known to have growth promoting effect, and cells were collected at an appropriate time. The whole cell lysate was separated by SDS-PAGE, and then, transferred onto a PVDF membrane, and a total amount of cellular activated MAP kinase and MAP kinase was measured by Western blotting method using an anti-phospho-MAP kinase antibody which recognizes only activated MAP kinase (Cell Signaling Technology, 166B Cumming Center Beverly, Mass. 01915 U.S.A.: in FIG. 4, WB: PMAPK), and a MAP kinase antibody which recognizes all endogenous MAP kinases (Cell Signaling Technology, 166B Cumming Center Beverly, Mass. 01915 U.S.A.: in FIG. 4, WB: MAPK) [FIG. 4]. […] That is, it has been apparent that MAP kinase controlling cell growth is activated by stimulation of angiotensin II.

[9] = system: STAT3; experiment: Activated STAT3 in LNCaP cells, Western blotting with anti-phospho-STAT3 (Tyr705) antibody; format: cell-based; conditions: 24 h no serum, angiotensin II 1x10^-6 M or EGF 1 ng/ml
Protocol: In order to make clear the effect of angiotensin II on an cellular protein STAT3 which is one of signal transducing molecules of a growth factor and a cytokine and is said to be involved in cell growth, prostate cancer LNCaP cells were cultured for 24 hours with no serum stimulation, and then, stimulated with angiotensin II (1×10^−6 M) or EGF (1 ng/ml) already known to have growth promoting effect, and cells were collected at an appropriate time. The whole cell lysate was separated by SDS-PAGE, and then, transferred onto a PVDF membrane. Activated STAT3 and a total amount of STAT3 were confirmed by Western blotting method using an anti-phospho-STAT3 (Tyr705) antibody which recognizes only activated STAT3 (Cell Signaling Technology, 166B Cumming Center Beverly, Mass. 01915 U.S.A.: in FIG. 5, WB: PSTAT3), and a STAT3 antibody which recognizes all endogenous STAT3s (Cell Signaling Technology, 166B Cumming Center Beverly, Mass. 01915 U.S.A.: in FIG. 5, WB: STAT3) [FIG. 5]. […] That is, it has been apparent that STAT3 controlling cell growth is activated by stimulation with angiotensin II.

[10] = system: tyrosine phosphorylation of cellular proteins in LNCaP cells; experiment: Tyrosine phosphorylation of cellular proteins in LNCaP cells, Western blotting with anti-phospho-tyrosine antibody; format: cell-based; conditions: 24 h no serum, angiotensin II 1x10^-6 M or EGF 1 ng/ml, 5 minutes
Protocol: It is already known that, when growth stimulation such as EGF is applied to cells, phosphorylation of cellular proteins is induced by activation of signal transduction pathway. Then, in order to make clear the effect of angiotensin II on prostate cancer, prostate cancer LNCaP cells were cultured for 24 hours with no serum stimulation, and then, the culture was stimulated with angiotensin II (1×10^−6 M) or EGF (1 ng/ml) which was already known to have growth promoting effect, and 5 minutes after, cells were collected. The whole cell lysate separated by SDS-PAGE, transferred onto a PVDF membrane, and then tyrosine phosphorylation of an cellular protein was observed by Western blotting method using an anti-phospho-tyrosine antibody (Upstate, 10 Old Barn Road Lake Placid, N.Y. 12946 U.S.A.) [FIG. 3]. […] That is, it is considered that stimulation with angiotensin II has the same or similar effect as that of stimulation with EGF on prostate cancer cells.

`CCOc1nc2cccc(C(=O)O)c2n1Cc1ccc(-c2ccccc2-c2nnn[nH]2)cc1` [Compound B, 2-ethoxy-1-[[2′-(1H-tetrazol-5-yl)biphenyl-4-yl]methyl]benzimidazole-7-carboxylic acid] was tested. Which “phosphorylation of STAT3 by EGF stimulation” value [1] did it give?
The value was “inhibited in a Compound B dose dependant manner”.

What about the “phosphorylation of MAPK by EGF stimulation” value [2] of the same compound?
Its value is “phosphorylation was inhibited”.

And the “phosphorylation of MAPK by IL-6” value [3]?
Its value is “inhibited in a Compound B dose dependent manner”.

And the “reduction of the number of cells as compared with stimulation with EGF alone” value [4]?
Its value is “about 12%”.

And the “reduction of the number of cells as compared with stimulation with EGF alone” value [5]?
Its value is “about 22%”.

`CCOc1nc2cccc(C(=O)OC(C)OC(=O)OC3CCCCC3)c2n1Cc1ccc(-c2ccccc2-c2nnn[nH]2)cc1` (centres unmarked) [Compound C, 1-(cyclohexyloxycarbonyloxy)ethyl 2-ethoxy-1-[[2′-(1H-tetrazol-5-yl)biphenyl-4-yl]methyl]benzimidazole-7-carboxylate] was tested. Which “number of microvessels in tumor, average vessels in one field” value [6] did it give?
Its value is 37.5±3.3 vessels.

What about the “growth inhibition as compared with the control group” value ([7]; 5 mg/kg/day orally, in and after week 2) of the same compound?
The value was “significant difference of P<0.01”.

And the “tumor growth (diameter of tumor)” value ([7]; 5 or 2.5 mg/kg/day orally in drinking water, from week 2, 4 weeks)?
Its value is “inhibition of tumor growth was observed”.

With “EGF: growth factor already known to have growth promoting effect” as the compound, how does the “activated MAP kinase (WB: PMAPK)” value [8] read?
Its value is “activated MAP kinase was increased”.

And the “activated STAT3 (WB: PSTAT3)” value [9]?
Its value is “activated STAT3 was increased”.

What about the “tyrosine phosphorylation of cellular proteins” value [10] of the same compound?
The value was “tyrosine phosphorylation was induced”.

For “angiotensin II: stimulant of LNCaP cells acting on the angiotensin II receptor AT1 (DRVYIHPF; Angiotensin-2; UniProt P01019 25-32, looked up)”, which “activated MAP kinase (WB: PMAPK)” value [8] is on record?
Its value is “activated MAP kinase was increased”.

What about the “activated STAT3 (WB: PSTAT3)” value [9] of the same compound?
The value was “activated STAT3 was increased”.

And the “tyrosine phosphorylation of cellular proteins” value [10]?
The value was “tyrosine phosphorylation of the same protein by stimulation with angiotensin II was also observed”.
